Results reported in PubChem BioAssay (NCI).
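Results reflect a 48-hour exposure of cells in 96-well plates to compound at five concentrations. Abbreviation: GI50, concentration required for 50% inhibition of growth. Definition used: TGI = concentration required for complete inhibition of growth.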

How the values were obtained:
Assay in all cases: NCI tumour cell line growth inhibition, 48 h
[1] = test system: 786-0 renal
[2] = test system: A498 renal
[3] = test system: A549 NSCLC
[4] = test system: ACHN renal
[5] = test system: BT-549 breast
[6] = test system: CAKI-1 renal
[7] = test system: CCRF-CEM leukemia
[8] = test system: DU-145 prostate
[9] = test system: EKVX NSCLC
[10] = test system: HCC-2998 colon
[11] = test system: HCT-116 colon
[12] = test system: HCT-15 colon
[13] = test system: HL-60(TB) leukemia
[14] = test system: HOP-62 NSCLC
[15] = test system: HOP-92 NSCLC
[16] = test system: HS 578T breast
[17] = test system: HT29 colon
[18] = test system: IGROV1 ovarian
[19] = test system: K-562 leukemia
[20] = test system: KM12 colon
[21] = test system: LOX IMVI melanoma
[22] = test system: MCF7 breast
[23] = test system: MDA-MB-231 breast
[24] = test system: MOLT-4 leukemia
[25] = test system: NCI-H226 lung
[26] = test system: NCI-H23 lung
[27] = test system: NCI-H460 lung
[28] = test system: NCI-H522 lung
[29] = test system: NCI/ADR-RES ovarian
[30] = test system: OVCAR-4 ovarian
[31] = test system: OVCAR-5 ovarian
[32] = test system: OVCAR-8 ovarian
[33] = test system: PC-3 prostate
[34] = test system: RPMI-8226 leukemia
[35] = test system: RXF 393 renal
[36] = test system: SF-268 CNS
[37] = test system: SF-295 CNS
[38] = test system: SF-539 CNS
[39] = test system: SK-MEL-28 melanoma
[40] = test system: SK-MEL-5 melanoma
[41] = test system: SK-OV-3 ovarian
[42] = test system: SN12C renal
[43] = test system: SNB-19 CNS
[44] = test system: SNB-75 CNS
[45] = test system: SR leukemia
[46] = test system: SW-620 colon
[47] = test system: T-47D breast
[48] = test system: TK-10 renal
[49] = test system: U251 CNS
[50] = test system: UACC-257 melanoma
[51] = test system: UACC-62 melanoma
[52] = test system: UO-31 renal
[53] = test system: COLO 205 colon
[54] = test system: M14 melanoma
[55] = test system: MALME-3M melanoma
[56] = test system: MDA-MB-435
[57] = test system: SK-MEL-2 melanoma

COc1ccc(Cn2cc3c(c2-c2cc(OC)c(OC)c(OC)c2)CCCc2cnoc2-3)cc1
GI50 [1]: 669 nM
TGI [1]: > 100000 nM
GI50 [2]: 696 nM
TGI [2]: 7110 nM
GI50 [3]: 2340 nM
TGI [3]: > 100000 nM
GI50 [4]: 900 nM
TGI [4]: > 100000 nM
GI50 [5]: 482 nM
TGI [5]: > 100000 nM
GI50 [6]: 490 nM
TGI [6]: > 100000 nM
GI50 [7]: 415 nM
TGI [7]: > 100000 nM
GI50 [8]: 4110 nM
TGI [8]: > 100000 nM
GI50 [9]: 3000 nM
TGI [9]: > 100000 nM
GI50 [10]: 1610 nM
TGI [10]: 10600 nM
GI50 [11]: 391 nM
TGI [11]: > 100000 nM
GI50 [12]: 478 nM
TGI [12]: > 100000 nM
GI50 [13]: 350 nM
TGI [13]: > 100000 nM
GI50 [14]: 2220 nM
TGI [14]: > 100000 nM
GI50 [15]: 1270 nM
TGI [15]: > 100000 nM
GI50 [16]: 1540 nM
TGI [16]: > 100000 nM
GI50 [17]: 1130 nM
TGI [17]: > 100000 nM
GI50 [18]: 562 nM
TGI [18]: > 100000 nM
GI50 [19]: 422 nM
TGI [19]: > 100000 nM
GI50 [20]: 692 nM
TGI [20]: > 100000 nM
GI50 [21]: 997 nM
TGI [21]: > 100000 nM
GI50 [22]: 437 nM
TGI [22]: > 100000 nM
GI50 [23]: 2540 nM
TGI [23]: > 100000 nM
GI50 [24]: 802 nM
TGI [24]: > 100000 nM
GI50 [25]: 1990 nM
TGI [25]: > 100000 nM
GI50 [26]: 2620 nM
TGI [26]: > 100000 nM
GI50 [27]: 500 nM
TGI [27]: > 100000 nM
GI50 [28]: 975 nM
TGI [28]: 6900 nM
GI50 [29]: 544 nM
TGI [29]: > 100000 nM
GI50 [30]: 4970 nM
TGI [30]: > 100000 nM
GI50 [31]: 3720 nM
TGI [31]: > 100000 nM
GI50 [32]: 4300 nM
TGI [32]: > 100000 nM
GI50 [33]: 849 nM
TGI [33]: > 100000 nM
GI50 [34]: 1560 nM
TGI [34]: > 100000 nM
GI50 [35]: 658 nM
TGI [35]: 5040 nM
GI50 [36]: 4720 nM
TGI [36]: > 100000 nM
GI50 [37]: 511 nM
TGI [37]: > 100000 nM
GI50 [38]: 700 nM
TGI [38]: 5170 nM
GI50 [39]: > 100000 nM
TGI [39]: > 100000 nM
GI50 [40]: 2000 nM
TGI [40]: > 100000 nM
GI50 [41]: 4180 nM
TGI [41]: > 100000 nM
GI50 [42]: 4600 nM
TGI [42]: > 100000 nM
GI50 [43]: 1530 nM
TGI [43]: > 100000 nM
GI50 [44]: 869 nM
TGI [44]: 4750 nM
GI50 [45]: 359 nM
TGI [45]: > 100000 nM
GI50 [46]: 474 nM
TGI [46]: > 100000 nM
GI50 [47]: 1850 nM
TGI [47]: > 100000 nM
GI50 [48]: > 100000 nM
TGI [48]: > 100000 nM
GI50 [49]: 4470 nM
TGI [49]: > 100000 nM
GI50 [50]: > 100000 nM
TGI [50]: > 100000 nM
GI50 [51]: 906 nM
TGI [51]: > 100000 nM
GI50 [52]: 924 nM
TGI [52]: > 100000 nM

Fc1ccc(-c2cc3nc(C(Cl)Cl)nc(-c4ccco4)n3n2)cc1
GI50 [1]: 2770 nM
TGI [1]: 27500 nM
GI50 [2]: 1210 nM
TGI [2]: 2620 nM
GI50 [3]: 770 nM
TGI [3]: 5370 nM
GI50 [4]: 296 nM
TGI [4]: 1340 nM
GI50 [5]: 35300 nM
TGI [5]: > 100000 nM
GI50 [6]: 948 nM
TGI [6]: 4360 nM
GI50 [7]: > 100000 nM
TGI [7]: > 100000 nM
GI50 [53]: 624 nM
TGI [53]: 2480 nM
GI50 [8]: 303 nM
TGI [8]: 954 nM
GI50 [9]: 1280 nM
TGI [9]: 4860 nM
GI50 [10]: 400 nM
TGI [10]: 1650 nM
GI50 [11]: 310 nM
TGI [11]: 1100 nM
GI50 [12]: 486 nM
TGI [12]: 16400 nM
GI50 [13]: 300 nM
GI50 [14]: 504 nM
TGI [14]: 2840 nM
GI50 [15]: 541 nM
TGI [15]: 3370 nM
GI50 [16]: 1450 nM
TGI [16]: 4910 nM
GI50 [17]: 312 nM
TGI [17]: 1710 nM
GI50 [18]: 11600 nM
TGI [18]: > 100000 nM
GI50 [19]: 1790 nM
TGI [19]: > 100000 nM
GI50 [20]: 877 nM
TGI [20]: 3660 nM
GI50 [21]: > 100000 nM
TGI [21]: > 100000 nM
GI50 [54]: > 100000 nM
TGI [54]: > 100000 nM
GI50 [55]: > 100000 nM
TGI [55]: > 100000 nM
GI50 [22]: 273 nM
TGI [22]: 3240 nM
GI50 [23]: 368 nM
TGI [23]: 2330 nM
GI50 [56]: 1540 nM
TGI [56]: 6820 nM
GI50 [24]: > 47400 nM
TGI [24]: > 100000 nM
GI50 [25]: > 89500 nM
TGI [25]: > 100000 nM
GI50 [26]: 2440 nM
TGI [26]: > 58000 nM
GI50 [27]: 217 nM
TGI [27]: 533 nM
GI50 [28]: > 87900 nM
TGI [28]: > 100000 nM
GI50 [29]: 562 nM
TGI [29]: 6040 nM
GI50 [30]: 2620 nM
TGI [30]: 17500 nM
GI50 [31]: 1320 nM
TGI [31]: 6700 nM
GI50 [32]: 809 nM
TGI [32]: > 100000 nM
GI50 [33]: 727 nM
TGI [33]: 3880 nM
GI50 [34]: 481 nM
TGI [34]: 4030 nM
GI50 [35]: 413 nM
TGI [35]: 2510 nM
GI50 [36]: 1240 nM
TGI [36]: 8160 nM
GI50 [37]: 663 nM
TGI [37]: 4080 nM
GI50 [38]: 832 nM
TGI [38]: 3710 nM
GI50 [57]: 5360 nM
TGI [57]: 20400 nM
GI50 [39]: 2460 nM
TGI [39]: 6460 nM
GI50 [40]: > 100000 nM
TGI [40]: > 100000 nM
GI50 [41]: 2880 nM
TGI [41]: > 49400 nM
GI50 [42]: > 100000 nM
TGI [42]: > 100000 nM
GI50 [43]: 541 nM
TGI [43]: 5810 nM
GI50 [44]: 638 nM
TGI [44]: 3990 nM
GI50 [45]: 17800 nM
TGI [45]: > 100000 nM
GI50 [46]: 402 nM
TGI [46]: 3550 nM
GI50 [47]: 1010 nM
TGI [47]: 6710 nM
GI50 [48]: 3540 nM
TGI [48]: 7500 nM
GI50 [49]: 309 nM
TGI [49]: 2700 nM
GI50 [50]: 3530 nM
TGI [50]: 19600 nM
GI50 [51]: 3610 nM
TGI [51]: > 53800 nM
GI50 [52]: 1320 nM
TGI [52]: 5780 nM
